pKi: −log10 of the molar value.
How the values were obtained:
[1] = target: EZH2 (Homo sapiens, UniProt Q15910); assay: biochemical inhibition assay with recombinant EZH2
[2] = target: T1, EZH1 (Homo sapiens, UniProt Q92800); assay: biochemical inhibition assay with recombinant EZH1
T1 sequence (Q92800 1-747): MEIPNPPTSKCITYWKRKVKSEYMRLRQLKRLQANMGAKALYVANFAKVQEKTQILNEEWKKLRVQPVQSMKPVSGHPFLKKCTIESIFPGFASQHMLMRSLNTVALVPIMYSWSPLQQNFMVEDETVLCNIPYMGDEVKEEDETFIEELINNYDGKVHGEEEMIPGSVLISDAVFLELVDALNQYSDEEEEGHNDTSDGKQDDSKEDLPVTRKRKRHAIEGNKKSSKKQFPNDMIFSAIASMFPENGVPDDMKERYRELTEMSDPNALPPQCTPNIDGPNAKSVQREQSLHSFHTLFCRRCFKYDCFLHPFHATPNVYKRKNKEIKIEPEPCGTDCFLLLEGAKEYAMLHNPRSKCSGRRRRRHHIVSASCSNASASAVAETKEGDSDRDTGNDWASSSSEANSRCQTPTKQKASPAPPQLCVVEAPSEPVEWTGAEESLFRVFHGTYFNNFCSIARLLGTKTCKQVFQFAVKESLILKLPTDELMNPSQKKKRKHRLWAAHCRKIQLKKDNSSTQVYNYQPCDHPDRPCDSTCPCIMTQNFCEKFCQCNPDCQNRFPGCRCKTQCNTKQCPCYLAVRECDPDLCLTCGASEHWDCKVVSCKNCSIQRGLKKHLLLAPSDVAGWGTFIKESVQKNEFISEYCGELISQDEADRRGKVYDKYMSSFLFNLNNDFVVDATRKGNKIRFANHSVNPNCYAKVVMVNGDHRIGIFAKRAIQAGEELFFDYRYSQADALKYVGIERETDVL

Sequence of EZH2 (Q15910 whole entry): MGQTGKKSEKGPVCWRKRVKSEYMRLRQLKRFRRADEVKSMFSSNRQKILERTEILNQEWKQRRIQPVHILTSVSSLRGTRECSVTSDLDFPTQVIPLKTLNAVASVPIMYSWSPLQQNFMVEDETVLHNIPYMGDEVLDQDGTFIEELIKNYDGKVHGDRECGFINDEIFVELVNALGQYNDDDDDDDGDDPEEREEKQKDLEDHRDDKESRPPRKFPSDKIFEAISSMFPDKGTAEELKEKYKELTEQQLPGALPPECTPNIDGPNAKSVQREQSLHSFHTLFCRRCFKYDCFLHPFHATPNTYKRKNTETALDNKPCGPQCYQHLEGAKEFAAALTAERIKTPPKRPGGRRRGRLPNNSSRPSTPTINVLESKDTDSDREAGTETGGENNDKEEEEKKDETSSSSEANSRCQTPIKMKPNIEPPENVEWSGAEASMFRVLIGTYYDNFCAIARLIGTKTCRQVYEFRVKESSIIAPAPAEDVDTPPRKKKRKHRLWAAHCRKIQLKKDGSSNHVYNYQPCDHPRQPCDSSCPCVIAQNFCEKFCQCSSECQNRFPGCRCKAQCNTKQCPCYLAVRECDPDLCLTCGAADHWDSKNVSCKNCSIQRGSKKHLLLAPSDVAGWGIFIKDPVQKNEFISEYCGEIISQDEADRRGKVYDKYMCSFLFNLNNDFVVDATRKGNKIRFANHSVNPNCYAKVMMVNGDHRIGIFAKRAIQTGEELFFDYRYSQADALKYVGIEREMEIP

Q: How did the pKi [1] turn out when `CCCc1cc(C)[nH]c(=O)c1CNC(=O)c1cc(-c2ccc(N3CCN(C)CC3)nc2)nc2c1cnn2C(C)C` [JQ-EZ-05] was run?
A: Its pKi is 8.66.

Q: And the pKi [2]?
A: The pKi was 7.58.
